Patent US20160089379A1, “TREATMENT OF NEUROLOGICAL AND OTHER DISORDERS” (PALMAYA PTY LTD, priority 2013, published 2016)
In brackets after ≈: the same amount, converted by molar mass. Read-outs that look alike come from different tables or passages of the source. Each block holds one compound with its values, some of them ahead of it.

Columns and labels:
patients [1] = settings: intravenous or oral bolus doses as high as 20,000 micrograms; work of others; cited from earlier work
epilepsy patient = assay: Treatment of epilepsy patient with flumazenil; type: in vivo, human; settings: 170 micrograms per hour, day following treatment
patients [2] = tested on: patients
[3] = tested on: idiopathic hypersomnia patients; assay: Treatment of idiopathic hypersomnia patients with flumazenil; type: in vivo, human
Description: We tested this model of disease again in two idiopathic hypersomnia patients. Both individuals had severe sleep drunkenness for over 18 months (Patient 1) and for over 13 years (Patient 2). We believe this illness to be due to the damage in the balance between an initial insult that had caused hyperpolarisation of cells which made them nonresponsive to benzodiazepine, as the prolonged presence of high levels of endogenous benzodiazepines continues long after the initial insult or disease. The homeostatic mechanisms that balance the delivery of dopamine to their cells responded to the damaged benzodiazepine receptors by maintaining the endogenous benzodiazepines at a high level in order to get some benzodiazepines to their cells. This inadequate dopamine delivered by response to valium was not occurring when we met these patients and so their cells remained unable to conduct currents and also unable to recover from their hyperpolarisation in the absence of dopamine.
[…]. Patient 2 was treated in a similar way.
This is in contrast with an existing patient treated by the Emery Research Group, who indicated a dose of approximately 2 mg per body mass unit per day would be required. For P1, with a BMI of 34 this would equate to 68 mg per day, 17 times what they were given during the infusion.
During the infusion and the two weeks prior, P1 kept a record of sleepiness and mood, upon awaking, mid-awake and pre-sleep on a scale of 0-10. For sleepiness 0 represented an unavoidable need to sleep, while 10 is feeling awake and rested. Similarly for mood, 0 represents rock bottom, while 10 was chirpy, happy and cheerful.

human adult volunteers = assay: Infusion of flumazenil for treatment of benzodiazepine addiction; type: in vivo
release of dopamine = settings: rats; combination of flumazenil and benzodiazepines; cited from earlier work
[4] = tested on: patient suffering from Parkinson's disease; assay: Finger tap test (one minute) and L-dopa intake in a Parkinson's disease patient; type: in vivo, human; settings: for Tapping score: flumazenil 170 micrograms per hour plus 10 mg of valium per day
Procedure: A study was conducted to test the theory that the loss of function of neuronal cells from hyperpolarisation in a patient suffering from Parkinson's disease could be reversed, improved or corrected. […] In addition, the patient was also given 10 mg of valium per day to facilitate the “sick cells” in the substantia niagra region of the brain stem, being able to produce their own dopamine again.
The patient was asked to perform the “finger tap test”, which is an indicator of the extent of Parkinson's disease. Briefly, the patient is asked to tap an index finger as fast as possible for one (1) minute (CNS tap test). The greater the number of taps per minute, the greater the improvement.
The following results were observed over four hours of treatment to the patient.

Solubility of flumazenil = type: physicochemical
patients [5] = assay: Naltrexone therapy in approximately 6,000 patients; type: in vivo, human
Procedure: Our experiments in approximately 6,000 patients treated with naltrexone (release rate of between 0.5 to 20 mg/day) or 1 to 100 micrograms per hour, with similar release rates of antagonists, has confirmed improvements in multiple sclerosis in our patients and also in crohn's disease which are both inflammatory conditions. […] These experiments showing blocking of dopamine is why the combination of right hand isomer of naltrexone and flumazenil in the dose range described is the ideal treatment to arrest multiple sclerosis.

[6] = P1, 4 day subcutaneous infusion, 4 mg per day
[7] = P1, post treatment, scale of 0-10, 10 is feeling awake and rested
[8] = P1, post treatment, scale of 0-10, 10 was chirpy, happy and cheerful
[9] = P2, before dose was doubled to 8 mg/day
[10] = release rate of between 0.5 to 20 mg/day or 1 to 100 micrograms per hour

solubility (Solubility of flumazenil; pH 1.2, simulated gastric fluid): 3000 µg/mL (≈ 9.89 mM)
solubility (Solubility of flumazenil; pH 7.5, aqueous buffer, pH of 7.5): 600 µg/mL (≈ 1.98 mM)
SMILES: CCOC(=O)c1ncn2c1CN(C)C(=O)c1cc(F)ccc1-2 [flumazenil]
adverse effects of bolus doses (patients [1]): anxiety attacks or fits
tolerance of light (light activating peti mal episodes) (epilepsy patient): able to go for a walk in the sun for an hour with no hat or sunglasses
fits (peti mal episodes) (epilepsy patient; none since (48 hour), previously at least 4-5 times each day): no fits
calmness and the ability to relate to others (patients [2]; 20 to 300 microgram per hour, subcutaneous and intravenous infusions, within 3 days (5 days at the lower end)): significant improvement
extent of changes in those with depression, anxiety and fear (patients [2]; at the 20 mg/hour end of the scale): less
extent of changes in those with depression, anxiety and fear (patients [2]; beyond 40 mg/hour): very marked
confidence in those with depression, anxiety and fear (patients [2]; during the infusion treatment): showed a confidence in themselves
depression and anxiety symptoms in patients previously diagnosed with psychosis (patients [2]; more than 20 of the 500): lifted in their depression and in their anxiety symptoms
alertness during infusion treatment (patients [2]; most of the 500): an increase in problem solving and reported a decrease in distractibility
sleep (patients [2]; nearly all of the 500, one patient reported difficulty getting to sleep): return to natural sleep
sleep drunkenness ([3]; 4 mg per day, within 3 days, both patients): full relief
concentration, memory and attention span [3, 6]: marked improvement
symptoms of IH reported during the infusion [3, 6]: not having experienced any sleep drunkenness, excessive day time sleepiness, heart palpitations or cold hands and feet
Stanford Sleepiness Scale (SSS) score ([3]; P1, at completion of flumazenil treatment, 6 out of a possible 8 at the time of treatment): 3
Epworth Sleepiness Scale (ESS) score ([3]; P1, at completion of flumazenil treatment, 21 of a possible 24 at the time of treatment): 4
Awaking sleepiness [3, 7]: 6.2 ± 0.8
Mid-awake sleepiness [3, 7]: 6.8 ± 0.5
Pre-sleep sleepiness [3, 7]: 5.8 ± 1.7
Awaking mood [3, 8]: 8.8 ± 0.4
Mid-awake mood [3, 8]: 8.8 ± 0.5
Pre-sleep mood [3, 8]: 8.5 ± 0.6
mental clarity of second patient (P2) [3, 9]: increase in mental clarity
tiredness and napping of second patient (P2) [3, 9]: still been very tired and napping through the day
health status of Patient 1 ([3]; flumazenil infusion at 2 mg/day by implant, within 7 days): full return to normal health
relief in those who had damaged their benzodiazepine receptors (human adult volunteers; 1-8 mg of flumazenil per day, usually within hours of commencing): gained relief
symptoms treated by benzodiazepines (human adult volunteers; flumazenil infusions, within hours, maintained for up to 3 to 4 days or longer): marked improvement
safety of long term flumazenil in humans (human adult volunteers; more than 500 patients, intravenous, subcutaneous and implant delivery): safe for use in human beings
release of dopamine (release of dopamine): enhance the release of dopamine
Tapping score ([4]; 0 hours from infusion (baseline)): 40 taps per minute
Tapping score ([4]; 2 hours from infusion): 50 taps per minute
Tapping score ([4]; 3 hours from infusion): 60 taps per minute
Tapping score ([4]; 4 hours from infusion): 73 taps per minute
L-dopa medication dosage after commencing infusion treatment ([4]; reduced from 1500 mg/day within days of commencing infusion, with valium): 250 mg/day

SMILES: O=C1CC[C@@]2(O)[C@H]3Cc4ccc(O)c5c4[C@@]2(CCN3CC2CC2)[C@H]1O5 [naltrexone]
crohn's disease (patients [5]; [10]): improvements
multiple sclerosis (patients [5]; [10]): improvements

SMILES: O=C1CC[C@@]2(O)[C@H]3Cc4ccc(O)c5c4[C@@]2(CCN3CC2CC2)[C@H]1O5 (single isomer, unassigned) [L isomer of naltrexone]
dopamine effects (patients [5]; human, in vivo): reduces dopamine effects
